These results are taken from PubChem BioAssay (NCI).

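Cultured in 96-well plates, cells were exposed to test compound for 48 hours across five concentrations. At the GI50, growth is halved. TGI is the concentration that stops growth completely.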

The experiment concerns MDA-MB-468 breast. Description: NCI-60 cell line screen, 48 h.
Regarding `Cc1cc(CCl)c(C)cc1CCl`, the GI50 was 379 nM and the TGI was determined as 1600 nM.

Take `COc1ccc2c(c1)C(=O)/C(=C/c1cccc(OCC(=O)Nc3nc(C)c(C)s3)c1)O2`: the TGI stood at 17.6 nM.

As to `Cc1ccc2c(n1)C(=O)C(Cl)=C(Nc1ccc(C(=O)OC(C)(C)C)cc1)C2=O`, the GI50 was 11100 nM and the TGI was 26700 nM.

As to `COc1ccc(-c2nc(-c3nc4cc(Cl)c(F)cc4[nH]3)c3ccccn23)cc1`, the GI50 is 2930 nM and the TGI amounted to 30300 nM.

Regarding `Nc1c(C(=O)c2cccc(C#CCN3CCCCC3)c2)cnn1-c1ccc(F)cc1`, the GI50 was 7720 nM and the TGI is > 25000 nM.

For the compound `COc1ccc(Nc2nc(Nc3cc(C)[nH]n3)c3cc(OC)c(OC)cc3n2)cc1`, the GI50 is 1010 nM and the TGI amounted to 2530 nM.

Regarding `Clc1ccc(/C=C/c2ccc3ccccc3n2)cc1`, the GI50 is 419 nM and the TGI was 2950 nM.

As to `Cc1ccc(S(=O)(=O)c2nc(-c3ccccc3)oc2S(C)(=O)=O)cc1`, the GI50 is 1770 nM and the TGI worked out at 3840 nM.

In the case of `COc1cc([C@@H]2c3cc4c(cc3[C@H](OC(C)=O)[C@H]3COC(=O)[C@@H]23)OCO4)cc(OC)c1OC`, the GI50 was 293 nM and the TGI was determined as 5450 nM.

Consider `CN(Cc1ccc(F)cc1)c1ccc(CO)c(Cl)c1`, for which the GI50 is 58 nM and the TGI turned out to be 207 nM.

Take `CCOC(=O)c1ccc(NC(=O)NC2=NCCS2)cc1`: the GI50 is 623 nM and the TGI was > 26400 nM.

Take `C=C1C(=O)O[C@H]2[C@H]1CC/C(Cn1cc(-c3ccc(N)cc3)nn1)=C\CC[C@@]1(C)O[C@@H]21`: the GI50 is 1770 nM and the TGI stood at 4210 nM.

With `CC(C)(C)[Si](C)(C)OC1[C@@H](CNC(N)=O)O[C@@H](n2cnc3c(NC(=O)Nc4ccccc4)ncnc32)[C@H]1O[Si](C)(C)C(C)(C)C` (stereo partly specified), the GI50 is 2150 nM and the TGI came to 8230 nM.

Take `CC(=O)c1ccc2c(c1)N(CCCN1CCN(CCO)CC1)c1ccccc1S2`: the GI50 is 1670 nM and the TGI was 3210 nM.

As for `C/C(=C(/c1ccccc1)c1ccc(OCC(O)CNCCN2CCOCC2)cc1)c1ccccc1` (stereo unspecified), the GI50 is 1410 nM and the TGI is 2850 nM.

On to `COc1cc(F)ccc1-c1cc(Nc2cc(CS(C)(=N)=O)ccn2)ncc1F` (stereo unspecified), for which the GI50 was 91.5 nM and the TGI amounted to 445 nM.

In the case of `Cc1ccc2sc3c(c2c1)OC(N)=C(C#N)C3c1cccc(F)c1` (stereo unspecified), the GI50 is 225 nM and the TGI is 724 nM.

In the case of `c1ccc(-c2nc3n(c2-c2ccc4c(c2)OCO4)CCC3)nc1`, the GI50 was 5810 nM and the TGI is 17000 nM.

Consider `O=C(Nc1cccc2[nH]c(C(F)(F)F)nc12)c1cc(Cl)ccc1Cl`, for which the GI50 was 2520 nM and the TGI stood at 7740 nM.

As to `COc1cccc(CNc2ncnc3c2ncn3C2OC(CO)C(O)C2O)c1O` (stereo unspecified), the GI50 was 137 nM and the TGI was 2090 nM.

On to `CCn1cc(/C=C2\Oc3cc(OCC#N)ccc3C2=O)c2cc(OC)ccc21`, for which the GI50 is 802 nM and the TGI is 13700 nM.

On to `COc1ccc(-c2cnnn2-c2nonc2-n2cccc2)cc1OC`, for which the GI50 was 2000 nM and the TGI is 7900 nM.

Turning to `CCOC(=O)c1sc(-c2ccc(OS(=O)(=O)C[C@]34CCC(CC3=O)C4(C)C)c(C=O)c2)nc1C`, the GI50 was 966 nM and the TGI was determined as 3300 nM.

Take `CCCN(CCC)c1ccc(C=O)c(Cl)c1`: the GI50 is 53.8 nM and the TGI amounted to 243 nM.

Consider `COc1cc(OC)c2sc(-c3ccc(-n4cncc4-c4ccc(OC)c(OC)c4)cc3)nc2c1`, for which the GI50 was 4150 nM and the TGI was > 100000 nM.

Turning to `CCOP(=O)(OCC)OC[C@]12CCC(C)(C)C=C1[C@H]1CC[C@@H]3[C@@]4(C)CC[C@H](OP(=O)(OCC)OCC)C(C)(C)[C@@H]4CC[C@@]3(C)[C@]1(C)CC2`, the GI50 was 1300 nM and the TGI is 2930 nM.

Turning to `CCN1[C@@H](C(=O)NC23CCC(C(=O)O)(CC2)CC3)[C@H](c2cccc(Cl)c2F)[C@]2(C(=O)Nc3cc(Cl)ccc32)C12CCCCC2`, the GI50 is 2180 nM and the TGI came out at 6680 nM.

`CCCCCCCCCc1ccc(OCCOCCOCCOCCOCCOCCOCCOCCOCCO)cc1`: the GI50 is 66 nM and the TGI is 1180 nM.

Turning to `N=c1ccc2nc3ccc(N)cc3sc-2c1`, the GI50 is 3020 nM and the TGI came out at 8120 nM.

As for `C=C1C(=O)O[C@H]2[C@H]1CC/C(COC(=O)NCc1ccc(Cn3c(=O)sn(CCCCC)c3=O)cc1)=C\CC[C@@]1(C)O[C@@H]21`, the GI50 was 1190 nM and the TGI is 2640 nM.

Regarding `O=C(CC1(O)C(=O)Nc2ccc(F)cc21)c1ccc(C(=O)NCC2CCC3(CC2)OOC2(CCCCC2)OO3)cc1` (stereo unspecified), the GI50 was 4540 nM and the TGI was 21600 nM.

In the case of `CN(C)CCCOc1cccc(NC2=C(Cl)C(=O)C(Nc3cccc(OCCCN(C)C)c3)=C(Cl)C2=O)c1`, the GI50 is 212 nM and the TGI was 458 nM.

For the compound `Cn1c(=O)n(C)c2cc(CNCCNc3ccnc4cc(Cl)ccc34)ccc21`, the GI50 was 14400 nM and the TGI came out at 32400 nM.

Take `CCSc1ccc([C@@H]2[C@@H](O)C(=O)N2c2cc(OC)c(OC)c(OC)c2)cc1`: the GI50 was < 10 nM and the TGI was 57600 nM.

As for `Cc1cc(NCc2cc(Nc3ccnc4cc(Cl)ccc34)ccc2F)nc(N2CCOCC2)n1`, the GI50 is 1940 nM and the TGI came out at 5640 nM.

Consider `COc1ccc(C(=O)c2sc3nc(-c4ccccc4OC)ccc3c2N)cc1OC`, for which the GI50 was 6280 nM and the TGI is > 100000 nM.

Turning to `Cc1cn(-c2cccc(NC(=O)c3ccc(C)c(Nc4nccc(-c5cccnc5)n4)c3)c2)cn1`, the GI50 is 1610 nM and the TGI stood at 3180 nM.

For `C=C1C(=O)O[C@H]2[C@H]1CC/C(COC(=O)N[C@H]1C[C@H](O[C@H]3C[C@](O)(C(=O)CO)Cc4c(O)c5c(c(O)c43)C(=O)c3c(OC)cccc3C5=O)O[C@@H](C)[C@H]1O)=C\CC[C@@]1(C)O[C@@H]21`, the GI50 was 793 nM and the TGI came to 2040 nM.

Turning to `Nc1nc(N)c2cc(Sc3ccc4ccccc4c3)ccc2n1`, the GI50 was 1100 nM and the TGI was 2390 nM.

Take `Cc1cc(N/N=C/c2nc(-c3ccc(Cl)cc3)oc2C)c2cc(Br)ccc2n1`: the GI50 is 1600 nM and the TGI turned out to be 3630 nM.

Regarding `COc1cc(C2=NN(C(C)=O)C(c3cc(OC)c(OC)c(OC)c3)C2)ccc1O` (stereo unspecified), the GI50 is 265 nM and the TGI worked out at 3610 nM.

Take `COc1ccc2[nH]cc(-c3cc(N)n4nc(-c5c[nH]c6ccc(OC)cc56)cc4n3)c2c1`: the GI50 was 1730 nM and the TGI stood at 3750 nM.

On to `COc1cc(OCc2cccc(-c3ccccc3)c2C)cc(OC)c1CN1CCCCC1C(=O)NCCOCCOCCN` (stereo unspecified), for which the GI50 was 1700 nM and the TGI turned out to be 3430 nM.

For `COc1ccc(C2=NC(=O)NC2c2ccc(OC)cc2)cc1` (stereo unspecified), the GI50 was 4710 nM and the TGI was found to be 43700 nM.

Turning to `FC(F)(F)c1ccc(-c2nn3ncccc3c2-c2ccnc(Nc3ccc4c(c3)OCCO4)n2)cc1`, the GI50 was 4520 nM and the TGI was 17600 nM.

In the case of `CCCC1(CN2c3ccccc3Sc3ccc(Cl)cc32)CCN(CC)C1` (stereo unspecified), the GI50 was 1600 nM and the TGI was determined as 3140 nM.
